Test results from patent US11078170B2 (Assembly Biosciences, Inc., priority 2017, dated 2021).

System: HBV viral production from HepAD38 cells
Test: Activity of test compounds on viral production from HepAD38 cells (viral load by qPCR of HBV core sequence in supernatant)
Assay type: cell-based
Details: Hepatitis B virus, 120 h, 5 days incubation, HBV DNA in supernatant by qPCR, top concentration 10 μM, read-out: Viral Load EC50 Activity range
Outline: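 HepAD38 cells, 50,000/well in tetracycline-free 2% FBS medium, treated 5 days at 37° C. with compound from 10 μM top concentration. HBV DNA in supernatant quantified by TaqMan qPCR of core sequence against DNA standards, relative to DMSO wells; CellTiter-Glo viability read in parallel. EC50/CC50 from four-parameter logistic fit.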

`[2H]C1C([2H])(c2ccc(-c3cn(C([2H])([2H])[2H])cn3)s2)NS(=O)(=O)N(C([2H])([2H])[2H])C1([2H])C(=O)Nc1ccc(F)c(Cl)c1` (stereo not drawn) [HBV-CSU-378, Cis-N-(3-chloro-4-fluorophenyl)-2-(methyl-d3)-5-(5-(1-(methyl-d3)-1H-imidazol-4-yl)thiophen-2-yl)-1,2,6-thiadiazinane-3,4,5-d3-3-carboxamide 1,1-dioxide] and `CN1[C@@H](C(=O)Nc2ccc(F)c(Cl)c2)C[C@H](c2ncc(-c3cn(C)cn3)s2)NS1(=O)=O` [HBV-CSU-276-Trans-ISO-I, (3R,5R)-N-(3-chloro-4-fluorophenyl)-2-methyl-5-(5-(1-methyl-1H-imidazol-4-yl)thiazol-2-yl)-1,2,6-thiadiazinane-3-carboxamide 1,1-dioxide] cannot be ordered by EC50: under 1000 nM for the first, under 1000 nM for the second.

First: O=C(Nc1ccc(F)c(Cl)c1)C1CC(c2nccs2)NS(=O)(=O)N1CCc1c[nH]nn1 (racemic) [HBV-CSU-092, Cis-2-(2-(1H-1,2,3-Triazol-4-yl)ethyl)-N-(3-chloro-4-fluorophenyl)-5-(thiazol-2-yl)-1,2,6-thiadiazinane-3-carboxamide 1,1-dioxide]
Second: N#CCN1[C@@H](C(=O)Nc2ccc(F)c(Cl)c2)C[C@@H](c2nccs2)NS1(=O)=O [HBV-CSU-093-ISO-II, Cis-N-(3-Chloro-4-fluorophenyl)-2-(cyanomethyl)-5-(thiazol-2-yl)-1,2,6-thiadiazinane-3-carboxamide 1,1-dioxide]
The EC50 of the first is lower: 1000 to 5000 nM for the first, over 5000 nM for the second. The first is the more potent here.

First: CN1[C@@H](C(=O)Nc2ccc(F)c(Cl)c2)C[C@@H](c2ccc3c(c2)ncn3C)NS1(=O)=O (relative stereo) [HBV-CSU-360-ISO-II, Cis-N-(3-chloro-4-fluorophenyl)-2-methyl-5-(1-methyl-1H-benzo[d]imidazol-5-yl)-1,2,6-thiadiazinane-3-carboxamide 1,1-dioxide]
Second: CN1[C@H](C(=O)Nc2ccc(F)c(Cl)c2)C[C@H](c2ccc3c(c2)ncn3C)NS1(=O)=O [HBV-CSU-360-ISO-I, Cis-N-(3-chloro-4-fluorophenyl)-2-methyl-5-(1-methyl-1H-benzo[d]imidazol-5-yl)-1,2,6-thiadiazinane-3-carboxamide 1,1-dioxide]
The EC50 of the first is lower: under 1000 nM for the first, 1000 to 5000 nM for the second.

First: CN1C(C(=O)Nc2ccc(F)c(Br)c2)CC(c2ccc(Br)s2)NS1(=O)=O (stereo not drawn) [HBV-CSU-257, Cis-N-(3-Bromo-4-fluorophenyl)-5-(5-bromothiophen-2-yl)-2-methyl-1,2,6-thiadiazinane-3-carboxamide 1,1-dioxide]
Second: CN1[C@@H](C(=O)Nc2ccc(F)c(Cl)c2)C[C@@H](c2cc(-c3cnn(C)c3)cs2)NS1(=O)=O [HBV-CSU-169-ISO-II, Cis-N-(3-chloro-4-fluorophenyl)-2-methyl-5-(4-(1-methyl-1H-pyrazol-4-yl)thiophen-2-yl)-1,2,6-thiadiazinane-3-carboxamide 1,1-dioxide]
The EC50 of the first is lower: under 1000 nM for the first, 1000 to 5000 nM for the second.

`CN1[C@H](C(=O)Nc2cccc(C#N)c2)C[C@H](c2cccs2)NS1(=O)=O` [HBV-CSU-020-ISO-I, Cis-N-(3-cyanophenyl)-2-methyl-5-(thiophen-2-yl)-1,2,6-thiadiazinane-3-carboxamide 1,1-dioxide] and `CCN1C(C(=O)Nc2ccc(F)c(Cl)c2)CC(c2cccs2)NS1(=O)=O` (racemic) [HBV-CSU-024, Cis-N-(3-chloro-4-fluorophenyl)-2-ethyl-5-(thiophen-2-yl)-1,2,6-thiadiazinane-3-carboxamide 1,1-dioxide] cannot be ordered by EC50: under 1000 nM for the first, under 1000 nM for the second.

First: CN1C(C(=O)Nc2ccc(F)c(Cl)c2)CC(c2cccs2)N(C)S1(=O)=O (stereo not drawn) [HBV-CSU-023, Cis-N-(3-Chloro-4-fluorophenyl)-2,6-dimethyl-5-(thiophen-2-yl)-1,2,6-thiadiazinane-3-carboxamide 1,1-dioxide]
Second: CN1[C@@H](C(=O)Nc2cc(F)c(F)c(F)c2)C[C@@H](c2ccc(F)cc2)NS1(=O)=O [HBV-CSU-212-ISO-II, Cis-5-(4-Fluorophenyl)-2-methyl-N-(3,4,5-trifluorophenyl)-1,2,6-thiadiazinane-3-carboxamide 1,1-dioxide]
The EC50 of the first is lower: 1000 to 5000 nM for the first, over 5000 nM for the second.
